Results reported in patent publication CN107308170A, “药物联用在制备抗炎药物中的应用以及抗炎药物组合物” (priority 2017, dated 2017).

Key:
[1] = tested on: xylene-induced swelling of the mouse right ear (二甲苯所致的小鼠右耳肿胀); assay: 二甲苯致小鼠耳肿胀抗炎试验 (xylene-induced mouse ear swelling test); assay type: in vivo; settings: oral gavage; for inhibition of xylene-induced right ear swelling (in words) / swelling degree compared with aspirin (in words): used alone, 10mg/kg; for swelling degree compared with aspirin (in words): versus aspirin 150mg/kg
Hep-2 cells (Hep-2细胞) = assay type: cell-based; settings: 3 days, MTT

## C[C@]12CC[C@H](O)C[C@H]1CC[C@@H]1[C@@H]2CC[C@]2(C)[C@@H](c3ccc(=O)oc3)CC[C@]12O [蟾毒灵]
[1]; 5 days
  inhibition of xylene-induced right ear swelling (in words): 能够抑制二甲苯所致的小鼠右耳肿胀
  swelling degree compared with aspirin (in words): 肿胀度大于阳性对照药阿司匹林
Hep-2 cells (Hep-2细胞)
  CC50 compared with the three-component combination (in words): 远远小于蟾毒灵、酯蟾毒配基以及远华蟾蜍精三者的组合

## C[C@]12CC[C@H](O)C[C@@]1(O)CC[C@@H]1[C@@H]2CC[C@]2(C)[C@@H](c3ccc(=O)oc3)CC[C@]12O [远华蟾蜍精]
[1]; 5 days
  inhibition of xylene-induced right ear swelling (in words): 能够抑制二甲苯所致的小鼠右耳肿胀
  swelling degree compared with aspirin (in words): 肿胀度大于阳性对照药阿司匹林
Hep-2 cells (Hep-2细胞)
  CC50 compared with the three-component combination (in words): 远远小于蟾毒灵、酯蟾毒配基以及远华蟾蜍精三者的组合

## C[C@]12CC[C@H](O)C[C@H]1CC[C@@H]1[C@@H]2CC[C@]2(C)[C@@H](c3ccc(=O)oc3)C[C@H]3O[C@]132 [酯蟾毒配基]
[1]; 5 days
  inhibition of xylene-induced right ear swelling (in words): 能够抑制二甲苯所致的小鼠右耳肿胀
  swelling degree compared with aspirin (in words): 肿胀度大于阳性对照药阿司匹林
Hep-2 cells (Hep-2细胞)
  CC50 compared with the three-component combination (in words): 远远小于蟾毒灵、酯蟾毒配基以及远华蟾蜍精三者的组合

## CC(=O)Oc1ccccc1C(=O)O [阿司匹林, reference compound]
[1]; aspirin 150mg/kg, once daily for 5 days, xylene 50μL on right ear 1h after last dose, ears weighed 1h later
  swelling degree: 8.56 mg
[1]; aspirin 150mg/kg, test substances 10mg/kg, 5 days
  anti-inflammatory effect compared between aspirin and test substances (in words): 优于蟾毒灵、酯蟾毒配基或远华蟾蜍精
